According to patent US6608203B2, “Tetrahydroisoquinoline compounds as estrogen agonists/antagonists” (Pfizer Inc., priority 1999, dated 2003):

Assays:
male Sprague-Dawley rats = assay: Assay 2: Effect on Prostate Weight; type: in vivo, rat; settings: subcutaneous injection daily for 14 days, compared to vehicle
Description: Three-month-old male Sprague-Dawley rats are administered by subcutaneous injection control vehicle (10% ethanol in water), estradiol (30 μg/kg), testosterone (1 mg/kg), or a test compound according to the present invention daily for 14 days (n=6/group). After 14 days the animals are sacrificed, the prostate is removed, and the wet prostate weight is determined. Mean weight is determined and statistical significance (p<0.05) is determined compared to the vehicle-treated group using the Student's t-test.

[1] = unlike estrogen; cited from earlier work
male rats [2] = settings: cited from earlier work
male rats [3] = settings: 200 and 400 mg/kg/day; cited from earlier work

## C[C@]12CC[C@H]3[C@@H](CCC4=CC(=O)CC[C@@]43C)[C@@H]1CC[C@@H]2O [Testosterone, testosterone]
Male Sprague-Dawley rats; testosterone 1 mg/kg
  effect on wet prostate weight: no effect

## C[C@]12CC[C@@H]3c4ccc(O)cc4CC[C@H]3[C@@H]1CC[C@@H]2O [estrogen, estradiol]
Male Sprague-Dawley rats; estrogen at 30 μg/kg
  effect on wet prostate weight: significantly reduce prostate weight

## O=C(c1ccc(OCCN2CCCCC2)cc1)c1c(-c2ccc(O)cc2)sc2cc(O)ccc12 [raloxifene, 6-hydroxy-2-(4-hydroxyphenyl)-3-[4-(2-piperidinoethoxy)benzoyl] benzo[b] thiophene]
[1]
  uterine stimulatory effect: minimal uterine stimulatory effect
Male rats [2]
  effect on ventral prostate: regression of the ventral prostate

## CC/C(=C(\c1ccccc1)c1ccc(OCCN(C)C)cc1)c1ccccc1 [tamoxifen, 1-(4-β-dimethylaminoethoxyphenyl)-1,2-diphenyl-but-1-ene]
Male rats [3]
  weights of the testes and secondary sex organs: reduces the weights of the testes and secondary sex organs
